Source: patent US20220096592A1, “PIC1 VARIANTS WITH IMPROVED SOLUBILITY AND METHODS OF USING THE SAME” (priority 2019, published 2022)
“Also recorded” adds a separate entry of the source. Where a SMILES comes first, the peptide text is derived from it. [ ]: non-standard residue; d: D form. Sar = CNCC(=O)O

How the values were obtained:
purified C1q = purified C1q (UniProt P02745); experiment: cell-based or functional assay
C1q = biological target: T1, C1q (Homo sapiens, UniProt P02745+P02746+P02747); experiment: ELISA-type assay of peptide binding to C1q; conditions: binding curves and half-maximal binding, FIG. 1C, 1D; listed as 18
T1 construct: purchased Complement Technology (Tyler, Tex.)
T1 sequence (P02745 23-245): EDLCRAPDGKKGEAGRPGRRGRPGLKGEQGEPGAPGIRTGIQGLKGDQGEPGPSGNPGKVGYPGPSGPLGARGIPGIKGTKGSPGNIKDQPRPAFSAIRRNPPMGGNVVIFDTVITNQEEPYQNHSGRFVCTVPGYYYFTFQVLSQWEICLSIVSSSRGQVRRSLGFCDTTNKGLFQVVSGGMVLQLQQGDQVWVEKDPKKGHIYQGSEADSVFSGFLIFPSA
T1 sequence (P02746 28-253): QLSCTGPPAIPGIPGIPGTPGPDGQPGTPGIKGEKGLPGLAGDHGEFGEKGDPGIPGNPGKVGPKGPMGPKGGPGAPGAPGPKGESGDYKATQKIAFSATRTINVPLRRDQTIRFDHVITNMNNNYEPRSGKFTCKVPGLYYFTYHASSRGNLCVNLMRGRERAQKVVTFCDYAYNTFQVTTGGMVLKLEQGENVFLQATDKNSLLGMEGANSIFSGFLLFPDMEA
T1 sequence (P02747 29-245): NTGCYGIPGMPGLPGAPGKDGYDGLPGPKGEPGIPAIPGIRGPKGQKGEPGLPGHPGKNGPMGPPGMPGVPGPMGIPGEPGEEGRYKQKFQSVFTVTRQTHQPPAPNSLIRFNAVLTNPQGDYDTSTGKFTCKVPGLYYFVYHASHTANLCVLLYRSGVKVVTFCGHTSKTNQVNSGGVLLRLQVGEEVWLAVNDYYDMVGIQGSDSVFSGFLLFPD
Description: (§1) The plates were washed with PBST (phosphate buffered saline+0.1% Tween) and then blocked with 1% gelatin/PBS for 2 hours at room temperature. After washing, the plates were incubated with PA or sarcosine variant peptides starting at 2.5 mg/ml and then serially diluted in 1% gelatin/PBS for 1 hour at room temperature. After washing, the plates were probed with rabbit anti-PA (developed with Cocalico Biologicals, Reamstown, Pa.) at 1:1000 in 1% gelatin/PBS for 1 hour, room temperature, followed by a goat anti-rabbit HRP (Sigma Aldrich, St Louis, Mo.) at 1:1,000 in 1% gelatin/PBS for 1 hour at room temperature with a washing step in between. Wells were developed using TMB substrate solution, stopped using 1 N H2SO4, and read at 450 nm in a plate reader.
Higher concentrations of DMSO interfere with the detecting reagents resulting in a partial binding curve.

[1] = Total Antioxidant Capacity (TAC) assay; conditions: 0.03-0.25 mM, copper reducing equivalents, FIG. 4
Description: The TAC (Total Antioxidant Capacity) Assay (Cell Biolabs, Inc. San Diego, Calif.) was used to measure the antioxidant capacity of the sarcosine variants based on the reduction of copper (II) to copper (I). The assay was performed according to the recommended kit protocol.
Antioxidant activity was measured in copper reducing equivalents (CRE). Peptides were tested over a range of concentrations from 0.03-0.25 mM then compared to the standard.

[2] = system: antibody-initiated complement activation (ABO incompatible hemolysis)
Description: (§2) For hemolytic complement assays, human red blood cells (RBCs) from type AB donors were purified, washed and standardized to 1×10^9 cells/ml, as previously described. Human sera from type 0 donors at a 20% final concentration was combined with […] PIC1 or sarcosine variant peptides, and the volume was brought up to 0.15 ml with GVBS^++ and […] RBCs. For factor B-depleted sera hemolytic assays, a final of 0.005% factor B depleted sera was incubated with […] PIC1 or sarcosine variant peptides with 0.1 ml antibody-sensitized sheep red blood cells (EA) in a final volume of 0.75 ml GVBS^++. The samples were incubated for one hour at 37° C. Then, 1.0 ml of GVBS^−− was added to the factor B-depleted samples to stop the reaction. The samples were spun at 3,000 rpm for 5 minutes. The supernatant was then collected and read at 412 nm. An analysis was performed to represent the values as a percent of the positive control, which consists of human 0 sera and AB red blood cells in GVBS^++ buffer.
(§3) An evaluation of the extent to which the peptide variants inhibit antibody-initiated complement activation was performed. The peptide variants were tested in the following two hemolytic assays: (i) an ABO incompatibility ex vivo assay and (ii) a classical pathway CH50-type assay in factor B-depleted sera.
In the ABO incompatibility hemolytic assay, purified erythrocytes from a ‘type AB+’ donor were incubated with sera from a ‘type 0’ subject containing anti-A and anti-B antibodies; peptides were tested at 1.8 mM.

MPO = biological target: T2, MPO (Homo sapiens, UniProt P05164); experiment: plate-based assay of binding to solid phased MPO; conditions: binding curves and half-maximal binding, FIG. 2C, 2D
T2 construct: purchased Lee BioSolutions (Maryland Heights, Mo.)
T2 sequence (P05164 279-745 limits assumed): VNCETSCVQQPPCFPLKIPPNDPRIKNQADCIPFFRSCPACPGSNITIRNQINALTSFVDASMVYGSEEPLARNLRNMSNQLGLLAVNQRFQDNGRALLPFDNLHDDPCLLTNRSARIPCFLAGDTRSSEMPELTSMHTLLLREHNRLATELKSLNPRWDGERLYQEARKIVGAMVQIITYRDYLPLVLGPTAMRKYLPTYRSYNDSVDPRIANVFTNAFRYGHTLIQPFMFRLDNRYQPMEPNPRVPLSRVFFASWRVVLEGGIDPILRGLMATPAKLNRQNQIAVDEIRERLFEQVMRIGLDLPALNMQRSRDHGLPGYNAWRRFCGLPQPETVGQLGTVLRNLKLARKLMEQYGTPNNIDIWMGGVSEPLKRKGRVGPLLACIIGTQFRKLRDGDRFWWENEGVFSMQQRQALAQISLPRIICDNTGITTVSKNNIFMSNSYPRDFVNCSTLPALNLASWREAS
T2 sequence (P05164 165-273 limits assumed): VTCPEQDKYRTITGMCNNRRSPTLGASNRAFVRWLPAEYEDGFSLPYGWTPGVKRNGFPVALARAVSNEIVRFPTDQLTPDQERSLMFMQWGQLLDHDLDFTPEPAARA
Description: as §1
A plate-based assay was performed to test the binding of the peptide variants to solid phased MPO. MPO binding was identified for all variants, except for C9,10.

MPO heme ring = biological target: T3, MPO heme ring (Homo sapiens, UniProt P05164); experiment: MPO heme ring oxidative degradation (absorbance 300-550 nm); assay type: biochemical; conditions: peptides at 3 mM, with H2O2, FIG. 3A-3H
T3 construct: purchased Lee BioSolutions (Maryland Heights, Mo.)
T3 sequence (P05164 279-745 limits assumed): as the sequence (P05164 279-745 limits assumed) above
T3 sequence (P05164 165-273 limits assumed): as the sequence (P05164 165-273 limits assumed) above
Description: In a 96 well plate, 0.025 ml of 1.7 mg/ml MPO was combined with 0.00125 ml of 0.5% H2O2 and 3 mM PIC1 or sarcosine variant peptides in a total volume of 0.125 ml PBS and left to incubate at room temperature for 2 minutes. Using a 96 well plate reader, the wells were scanned for absorbance from 300-550 nm to generate curves reflecting the iron state in the MPO heme ring, as previously reported.
The ability of the variants to prevent degradation of the heme ring in the MPO molecule was then evaluated. […] Degradation of the heme ring can be evaluated via spectrometric measurements of absorption of wavelengths from 300 to 550 nm.

myeloperoxidase (MPO) = biological target: T4, myeloperoxidase (MPO) (Homo sapiens, UniProt P05164); experiment: MPO peroxidase activity, TMB-based assay; assay type: biochemical; conditions: dose-response and half-maximal inhibition, FIG. 2A, 2B
T4 construct: purchased Lee BioSolutions (Maryland Heights, Mo.)
T4 sequence (P05164 279-745 limits assumed): as the sequence (P05164 279-745 limits assumed) above
T4 sequence (P05164 165-273 limits assumed): as the sequence (P05164 165-273 limits assumed) above
Description: PIC1 and sarcosine variants were diluted to 25 mg/ml and then serially titrated in a 96 well plate at a volume of 0.02 ml. Myeloperoxidase (MPO) was diluted to 20 μg/ml and 0.02 ml was added to the titrated peptides. TMB (3,3′,5,5′-tetramethylbenzidine) (0.1 ml) was added to each well for 2 minutes, followed by 0.1 ml of 2.5 N H2SO4 for another 2 minutes, and then read on a 96 well plate reader (BioTek) at 450 nm.
In this assay, the variants were tested for MPO inhibition over a range of concentrations. Strong MPO inhibition was found for all variants with the exception of the no-cysteine variant (C9,10).

[3] = system: classical complement pathway; conditions: peptides at 0.4 mM, compared with PA-dPEG24, FIG. 1B
Description: as §2, §3
A CH50-type hemolytic assay was then performed. with antibody-sensitized sheep erythrocytes, isolating the classical pathway by utilizing factor B-depleted sera; peptides were tested at 0.4 mM.

purified C1q, sequence (P02745 23-245 limits assumed, chain 1 of 3): as the sequence (P02745 23-245) above
purified C1q, sequence (P02746 28-253 limits assumed, chain 2 of 3, further chain): as the sequence (P02746 28-253) above
purified C1q, sequence (P02747 29-245 limits assumed, chain 3 of 3, further chain): as the sequence (P02747 29-245) above

Compound “PA-I8Sar (H2N-IALILEP(Sar)CCQERAA-OH) (peptide)” has an inhibition of classical pathway hemolysis in factor B-depleted sera, more than PA-dPEG24 (peptides at 0.4 mM) (purified C1q) of 75%.
With CC[C@H](C)[C@H](N)C(=O)N[C@@H](C)C(=O)N[C@@H](CC(C)C)C(=O)N[C@H](C(=O)N[C@@H](CC(C)C)C(=O)N[C@@H](CCC(=O)O)C(=O)N1CCC[C@H]1C(=O)N(C)CC(=O)N[C@@H](CS)C(=O)N[C@@H](CS)C(=O)N[C@@H](CCC(N)=O)C(=O)N[C@@H](CCC(=O)O)C(=O)N[C@@H](CCCNC(=N)N)C(=O)N[C@@H](C)C(=O)N[C@@H](C)C(=O)O)[C@@H](C)CC [I8, H2N-IALILEP(Sar)CCQERAA-OH] (H-IALILEP[Sar]CCQERAA-OH) the “binding to C1q, in words” value (C1q) was “superior binding to C1q as compared with the other peptides; also recorded: slightly superior to that of PA-dPEG24”, the “total antioxidant capacity, in words” value [1] was “antioxidant capacity approaching that of PA-dPEG24” and the “complement inhibition overall, in words” value ([2]; both hemolytic complement inhibition assays) was “superior inhibition of antibody-initiated complement activation and hemolysis compared with PA and other peptide variants”. The “inhibition of ABO incompatible hemolysis, in words” value ([2]; peptides at 1.8 mM, compared with PA-dPEG24, FIG. 1A) was “inhibited ABO incompatible hemolysis to a greater extent than did the PA-dPEG24”, the “binding to MPO, in words” value (MPO) was “superior binding to MPO, as compared with the other sarcosine variants” and the “inhibition of heme ring degradation, in words” value (MPO heme ring) was “near perfect preservation of the heme ring absorption spectrum”. The “MPO inhibition, in words” value (myeloperoxidase (MPO)) was “greatest potency among the different variants” and the “inhibition of classical pathway hemolysis, in words” value [3] was “superior activity”.
